Results from publication PMC8160438, “A Novel Heptapeptide, GPPGPAG Transfers to the Brain, and Ameliorates Memory Dysfunction and Dendritic Atrophy in Alzheimer’s Disease Model Mice” (Frontiers in Pharmacology, 2021).
No end group written: not given here.

Assay: Body weight during i.c.v. infusion
Format: in vivo, mouse
Conditions: i.c.v. infusion for 28 days
Description: FIGURE 4 Effect of i.c.v. infusion of GPPGPAG on object recognition memory deficits in 5XFAD mice (A) GPPGPAG or vehicle solution (artificial cerebrospinal fluid; ACSF) was continuously administered to the lateral ventricle for 28 days in mice (male and female, 24–27 weeks old). The dose of GPPGPAG was set as 10 nM in CSF. An object recognition test was carried out with a 3 h interval time. The preferential indices of the training and test sessions are shown. *p < 0.05 vs. vehicle-treated 5XFAD mice, repeated measures two-way ANOVA with post hoc Bonferroni’s test. mean ± standard error. Wild-type (male, n = 5), vehicle-treated 5XFAD mice (male, n = 2; female, n = 2), GPPGPAG-infused 5XFAD mice (male, n = 2; female, n = 3). (B) Locomotion was evaluated by open field test. Distance moved and duration with immobility were shown. mean ± standard error (C) Changed values of body weight of mice during whole experimental period are shown.
P re fe re n tia l in d e x (% ) […]
Effect of i.c.v. infusion of GPPGPAG on object recognition memory deficits in 5XFAD mice
(A) GPPGPAG or vehicle solution (artificial cerebrospinal fluid; ACSF) was continuously administered to the lateral ventricle for 28 days in mice (females, 5 - 7 months old). The dose of GPPGPAG was set as 10 nM in ACSF. An object recognition test was carried out with a 24 h interval time. […] (B) Locomotion was evaluated by open field test. […]

For GPPGPAG [GPPGPAG], the body weight (5XFAD mice, 10 nM in CSF) was “not significantly changed” and the body weight (female 5XFAD mice, 10 nM, separately performed experiment) was “no significant difference”.
